Reference: patent US6914045B2, “Glycopeptide antibiotics” (Wyeth Holdings Corporation, priority 2001, dated 2005)

Tests used:
Enterococcus sp. = assay: in vitro antibacterial evaluation, MIC by broth dilution; format: cell-based; settings: broth dilution, 18 hours at 35° C.
Outline: (§1)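 MIC = lowest antibiotic concentration preventing visible growth; inoculum 5×10^5 CFU/mL; drug range 64-0.06 μg/mL; Muller-Hinton II […]; NCCLS M7-A2 guidance.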

Escherichia coli = assay: as above; format: cell-based; settings: 18 hours at 35° C.
Outline: as §1

Staphylococcus sp. = assay: as above; format: cell-based; settings: broth dilution, 18 hours at 35° C.
Outline: as §1

Streptococcus sp. = assay: as above; format: cell-based; settings: broth dilution, 18 hours at 35° C.
Outline: as §1

[1] = system: Enterococcus faecalis (GC 6189); assay: acute lethal infection in mice; format: in vivo; settings: female CD-1 mice, intraperitoneal challenge, intravenous 30 min. after infection, 7 day survival
Outline: (§2)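 Mice (female CD-1, 20+/−2 gm) receive bacteria ip in broth or hog gastric mucin, then test agent iv after 30 min. Median effective dose is calculated from 7 day survival pooled across 3 tests.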

[2] = system: Staphylococcus aureus-SMITH (GC 4543); assay: acute lethal infection in mice; format: in vivo; settings: acute lethal infection, female CD-1 mice, intraperitoneal challenge, intravenous 30 min. after infection, 7 day survival
Outline: as §2

CC(c1ccccc1)C1NC(=O)CNC(=O)C(CO)NC(=O)C(C(O)C2CNC(=N)N2C2OC(CO)C(O)C(O)C2O)NC(=O)C(C(O)C2CNC(=N)N2)NC(=O)C(Cc2ccc(OC3OC(CO)C(OC4OC5COC(C6CC=CCC6)OC5C(O)C4O)C(O)C3O)cc2)NC1=O (stereo not drawn) [Example 115, Cyclo[glycyl-β-methylphenylalanyl-O-[4-O-[4,6-O-(cyclohex-3-en-1-ylmethylene)hexopyranosyl]hexopyranosyl]tyrosyl-3-(2-iminoimidazolidin-4-yl)seryl-3-(3-hexopyranosyl-2-iminoimidazolidin-4-yl)serylseryl]]
1 µg/mL: MIC Escherichia coli (GC 4560) (Escherichia coli; strain GC 4560) | MIC Coagulase Negative Staphylococcus (GC 4547) (Staphylococcus sp.) | MIC Coagulase Negative Staphylococcus (GC 4549) (Staphylococcus sp.) | MIC Coagulase Negative Staphylococcus (GC 4551) (Staphylococcus sp.) | MIC Staphylococcus aureus (ATCC 29213) (Staphylococcus sp.) | MIC Staphylococcus aureus (GC 1131) (Staphylococcus sp.) | MIC Staphylococcus aureus (GC 3051) (Staphylococcus sp.) | MIC Staphylococcus aureus (GC 3053) (Staphylococcus sp.) | MIC Staphylococcus aureus (GC 4541) (Staphylococcus sp.) | MIC Staphylococcus aureus (GC 4544) (Staphylococcus sp.) | MIC Staphylococcus aureus-SMITH (GC 4543) (Staphylococcus sp.) | MIC Staphylococcus aureus (GC 1131) (Staphylococcus sp.; inoculum 5×10^5 CFU/mL, strain GC 1131) | MIC Staphylococcus aureus (ATCC 29213) (Staphylococcus sp.; strain ATCC 29213) | MIC Staphylococcus aureus (GC 3051) (Staphylococcus sp.; strain GC 3051) | MIC Staphylococcus aureus (GC 3053) (Staphylococcus sp.; strain GC 3053) | MIC Staphylococcus aureus (GC 4541) (Staphylococcus sp.; strain GC 4541) | MIC Staphylococcus aureus (GC 4544) (Staphylococcus sp.; strain GC 4544) | MIC Coagulase Negative Staphylococcus (GC 4547) (Staphylococcus sp.; strain GC 4547) | MIC Coagulase Negative Staphylococcus (GC 4549) (Staphylococcus sp.; strain GC 4549) | MIC Coagulase Negative Staphylococcus (GC 4551) (Staphylococcus sp.; strain GC 4551) | MIC Staphylococcus aureus-SMITH (GC 4543) (Staphylococcus sp.; strain SMITH GC 4543)
<0.06 µg/mL: MIC Streptococcus pneumoniae (ATCC 6301) (Streptococcus sp.; Streptococcus pneumoniae (ATCC 6301)) | MIC Streptococcus pneumoniae (GC 1894) (Streptococcus sp.; Streptococcus pneumoniae (GC 1894)) | MIC Streptococcus pneumoniae (ATCC 6301) (Streptococcus sp.; strain ATCC 6301) | MIC Streptococcus pneumoniae (GC 1894) (Streptococcus sp.; strain GC 1894)
0.23 mg/kg: median effective dose (ED50), Staphylococcus aureus-SMITH (GC 4543) [2]
0.36 mg/kg: median effective dose (ED50), Enterococcus faecalis (GC 6189) [1]
4 µg/mL: MIC Enterococcus faecalis (GC 4553) (Enterococcus sp.; Enterococcus faecalis (GC 4553)) | MIC Enterococcus faecalis (GC 4553) (Enterococcus sp.; strain GC 4553)
0.5 µg/mL: MIC Coagulase Negative Staphylococcus (GC 4548) (Staphylococcus sp.) | MIC Coagulase Negative Staphylococcus (GC 6257) (Staphylococcus sp.) | MIC Staphylococcus aureus (GC 4542) (Staphylococcus sp.) | MIC Staphylococcus aureus (GC 4545) (Staphylococcus sp.) | MIC Staphylococcus haemolyticus (GC 4546) (Staphylococcus sp.) | MIC Staphylococcus aureus (GC 4542) (Staphylococcus sp.; strain GC 4542) | MIC Staphylococcus aureus (GC 4545) (Staphylococcus sp.; strain GC 4545) | MIC Staphylococcus haemolyticus (GC 4546) (Staphylococcus sp.; strain GC 4546) | MIC Coagulase Negative Staphylococcus (GC 4548) (Staphylococcus sp.; strain GC 4548) | MIC Coagulase Negative Staphylococcus (GC 6257) (Staphylococcus sp.; strain GC 6257)
32 µg/mL: MIC Escherichia coli (ATCC 25922) (Escherichia coli; strain ATCC 25922)
2 µg/mL: MIC Enterococcus avium (GC 4558) (Enterococcus sp.; Enterococcus avium (GC 4558)) | MIC Enterococcus faecalis (ATCC 29212) (Enterococcus sp.; Enterococcus faecalis (ATCC 29212)) | MIC Enterococcus faecalis (GC 2242) (Enterococcus sp.; Enterococcus faecalis (GC 2242)) | MIC Enterococcus faecalis (GC 2691) (Enterococcus sp.; Enterococcus faecalis (GC 2691)) | MIC Enterococcus faecalis (GC 3059) (Enterococcus sp.; Enterococcus faecalis (GC 3059)) | MIC Enterococcus faecalis (GC 4552) (Enterococcus sp.; Enterococcus faecalis (GC 4552)) | MIC Enterococcus faecalis (GC 4554) (Enterococcus sp.; Enterococcus faecalis (GC 4554)) | MIC Enterococcus faecalis (GC 6189) (Enterococcus sp.; Enterococcus faecalis (GC 6189)) | MIC Enterococcus faecium (GC 2243) (Enterococcus sp.; Enterococcus faecium (GC 2243)) | MIC Enterococcus faecium (GC 4556) (Enterococcus sp.; Enterococcus faecium (GC 4556)) | MIC Enterococcus faecium (GC 4557) (Enterococcus sp.; Enterococcus faecium (GC 4557)) | MIC Enterococcus faecalis (ATCC 29212) (Enterococcus sp.; strain ATCC 29212) | MIC Enterococcus faecalis (GC 2242) (Enterococcus sp.; strain GC 2242) | MIC Enterococcus faecium (GC 2243) (Enterococcus sp.; strain GC 2243) | MIC Enterococcus faecalis (GC 2691) (Enterococcus sp.; strain GC 2691) | MIC Enterococcus faecalis (GC 3059) (Enterococcus sp.; strain GC 3059) | MIC Enterococcus faecalis (GC 4552) (Enterococcus sp.; strain GC 4552) | MIC Enterococcus faecalis (GC 4554) (Enterococcus sp.; strain GC 4554) | MIC Enterococcus faecium (GC 4556) (Enterococcus sp.; strain GC 4556) | MIC Enterococcus faecium (GC 4557) (Enterococcus sp.; strain GC 4557) | MIC Enterococcus avium (GC 4558) (Enterococcus sp.; strain GC 4558) | MIC Enterococcus faecalis (GC 6189) (Enterococcus sp.; strain GC 6189)
64 µg/mL: MIC Escherichia coli (GC 4559) (Escherichia coli; strain GC 4559)
0.12 µg/mL: MIC Streptococcus pneumoniae (GC 4565) (Streptococcus sp.; Streptococcus pneumoniae (GC 4565)) | MIC Streptococcus pneumoniae (GC 4565) (Streptococcus sp.; strain GC 4565)
0.25 µg/mL: MIC Streptococcus agalactiae (GC 4564) (Streptococcus sp.; Streptococcus agalactiae (GC 4564)) | MIC Streptococcus pyogenes (GC 4563) (Streptococcus sp.; Streptococcus pyogenes (GC 4563)) | MIC Streptococcus pyogenes (GC 4563) (Streptococcus sp.; strain GC 4563) | MIC Streptococcus agalactiae (GC 4564) (Streptococcus sp.; strain GC 4564)
